According to patent US11890279B2, “Quinolines that modulate SERCA and their use for treating disease” (Neurodon Corporation, priority 2020, dated 2024):

Assays:
HEK293 cells = test: Protection against thapsigargin (TG)-induced cell death, HEK293; type: cell-based, human; settings: compound 20 μM; thapsigargin 15 μM; 24 hrs
Method: (§1) Protection against Thapsigargin (TG)-induced Cell-death. Human embryonic kidney (HEK293) cells were grown in Dulbecco's Modified Eagle's Medium (DMEM) with 10% FBS and 1% antibiotic antimycotic solution (ABAM). Mouse neuroblastoma (N2a) cells were grown in 1:1 DMEM:OPTI-MEM® with 5% FBS and 1% ABAM. All cells were grown in 10% CO2 in a humidified environment of the incubator. Cells grown in 96-well plates were exposed to a test compound (20 μM) for 2 hrs before addition of thapsigargin (15 μM for HEK293 cells and 1 μM for N2a cells) to induce ER stress. After incubation in cell-culture incubator for 24 hrs, ALAMARBLUE® regent (10% v/v) was added to the wells. Fluorescence reading was taken 2 hrs after the addition of the ALAMARBLUE® regent. Cell-viability was calculated as a percentage of relative fluorescence unit (RFU) compared to control.
(§2) The results are summarized in Table 2, where A represents a value greater than 50% cell rescue, B represents a value between 10% to 50% cell rescue, C represents a value between 1% to 10% cell rescue, and D represents a value no greater than 1% cell rescue.

N2a cells [1] = test: Protection against thapsigargin (TG)-induced cell death, N2a; type: cell-based, mouse; settings: compound 20 μM; thapsigargin 1 μM; 24 hrs
Method: as §1, §2

N2a cells [2] = test: Protection against hydrogen peroxide-induced cell death, N2a; type: cell-based, mouse; settings: compound 40 μM; hydrogen peroxide 200 μM
Method: Protection against Hydrogen Peroxide-induced Cell-death. N2a cells grown in 96-well plates were exposed to a test compound (40 μM) for 2 hrs before addition of hydrogen peroxide (200 μM). After 40 min of incubation with hydrogen peroxide, ALAMARBLUE® regent (10% v/v) was added to the wells. Fluorescence reading was taken 2 hrs after the addition of the ALAMARBLUE® regent. Cell-viability was calculated as a percentage of relative fluorescence unit (RFU) compared to control.
as §2

SERCA (SR vesicles) = test: Activation of SERCA, increase in Vmax; type: biochemical
Method: Test compounds were characterized over a range of concentrations using an NADH-linked, enzyme-coupled ATPase assay. Each well contained 2 mg or 7 mg of SR vesicles (optimized for skeletal or cardiac SR, respectively), 50 mM MOPS (pH 7.0), 100 mM KCl, 5 mM MgCl2, 1 mM EGTA, 0.2 mM NADH, 1 mM phosphoenol pyruvate, 5 IU pyruvate kinase, 5 IU lactate dehydrogenase, and 3.5 mg/mL A23187 (a calcium ionophore), and CaCl2 was added to set free [Ca2+] to the specific values. The assay was started upon addition of ATP at a final concentration of 5 mM, and read in a SpectraMax Plus microplate spectrophotometer and the ATPase activities were fitted using the Hill function.

CSM14.1 cells = test: ER stress cell survival assay (thapsigargin); type: cell-based; settings: compound 2 μM; about 15 μM thapsigargin; CSM14.1 cells;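 further: survival read as CellTiter-Glo luminescence after overnight incubation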
Method: ER Stress Cell Survival Assay
CSM14.1 cells were maintained in Complete Medium at 32° C.; wherein the Complete Medium contained Dulbecco's modified eagle medium (DMEM) with 10% fetal bovine serum (FSB), 1% L-glutamine, 100 IU/mL penicillin, and 100 μg/mL streptomycin. The cells were recovered from cultures by trypsinization and then seeded in 384 well plates (Greiner #781098) at a concentration of 1,000 cells/well in 20 μL of DMEM Assay Medium, wherein the DMEM Assay Medium contained 2% FBS, 100 IU/mL penicillin, and 100 μg/mL streptomycin. Seeding was performed using a MultiDrop Combi reagent broadcaster. The plates were incubated overnight at 32° C.
A test compound was prepared by 2-fold serial dilution in 100% DMSO using a BIOMEK® 2000 liquid handler (Beckman Coulter). A dose-response curve containing 10 concentrations of the test compound was obtained. Using a BIOMEK® FX liquid handler (Beckman Coulter), 2.5 μL of the test compound was transferred from the 100% DMSO serial dilution plate to an intermediate plate containing 47.5 μL of DMEM Assay Medium containing 2% FBS, 100 IU/mL penicillin, and 100 μg/mL streptomycin and mixed. To reduce or eliminate the interference from the compound's precipitation, 6 μL of the diluted compound was immediately transferred to the assay plate to achieve a high compound concentration of 100 μM in 99% DMEM Assay Medium and 1% DMSO. After the assay plates were incubated for 2 hrs, 4 μL of 112.5 μM thapsigargin (TG) (DMSO stock diluted into Assay TC Medium) was dispensed into each testing well with a MultiDrop Combi reagent broadcaster for a final concentration of about 15 μM TG. The tissue culture media (4 μL) containing vehicle only was transferred manually to each control cell using a 16 channel electronic pipette. […] High luminescence indicates cell survival.
Alternatively, a test compound was tested at a single compound concentration (e.g., 2 μM) to determine the effect of the compound on cell survival in comparison with vehicle.

| Compound | HEK293 Cells (TG-induced) cell rescue (HEK293 cells) | N2a Cells (TG-induced) cell rescue (N2a cells [1]) | N2a Cells (H2O2-induced) cell rescue (N2a cells [2]) | Increase in Vmax at 10 μM (SERCA (SR vesicles)) | Cell Survival (CSM14.1 cells) |
| --- | --- | --- | --- | --- | --- |
| COc1ccc(C(=O)Nc2cccc3ccc(C)nc23)cc1 [Compound A8, 4-Methoxy-N-(2-methylquinolin-8-yl)benzamide] | A (A represents a value greater than 50% cell rescue) | B (B represents a value between 10% to 50% cell rescue) | B (B represents a value between 10% to 50% cell rescue) | C′ (C′ represents an increase no greater than 20%) | – |
| N#Cc1cccc(C(=O)Nc2cccc3cccnc23)c1 [Compound B3, 3-Cyano-N-(quinolin-8-yl)benzamide] | A (A represents a value greater than 50% cell rescue) | B (B represents a value between 10% to 50% cell rescue) | B (B represents a value between 10% to 50% cell rescue) | C′ (C′ represents an increase no greater than 20%) | – |
| Cc1ccc2cccc(NC(=O)c3ccc(C#N)cc3)c2n1 [Compound B4, 4-Cyano-N-(2-methylquinolin-8-yl)benzamide] | A (A represents a value greater than 50% cell rescue) | B (B represents a value between 10% to 50% cell rescue) | B (B represents a value between 10% to 50% cell rescue) | – | – |
| Cc1ccc2cccc(NC(=O)c3ccccc3C(F)(F)F)c2n1 [Compound C5, 2-Trifluoromethyl-N-(2-methylquinolin-8-yl)benzamide] | A (A represents a value greater than 50% cell rescue) | A (A represents a value greater than 50% cell rescue) | B (B represents a value between 10% to 50% cell rescue) | B′ (B′ represents an increase between 20 to 50%) | B (B represents a value between 10% and 50%) |
| Cc1ccc2cccc(NC(=O)c3ccc(C(F)(F)F)cc3)c2n1 [Compound C10, 4-Trifluoromethyl-N-(2-methylquinolin-8-yl)benzamide] | A (A represents a value greater than 50% cell rescue) | B (B represents a value between 10% to 50% cell rescue) | B (B represents a value between 10% to 50% cell rescue) | – | D (D represents a value no greater than 1%) |
